Experimental data: patent publication US11236081B2, “Crystalline salts of corydalmine” (priority 2018, dated 2022)
Values joined by “and” are separate entries in the source; they are usually repeats but may differ in a detail not shown here. Identical values can stand only once.

Key:
[1] = Solubility studies in water at 2 hours; type: physicochemical
[2] = Pharmacokinetic study: plasma concentration and plasma PK parameters after IV/PO dosing (LC-MS/MS, WinNonlin); type: in vivo, Male SD Rat; details: male SD rat, vehicle 20% HP-β-CD in water (POA, freebase) or water (salts)
Excerpt: Pharmacokinetic and Brain Penetration Study
Dose formulation processing during dosing: The dose formulations will be kept at room temperature.
Concentrations of Test Article in the plasma samples will be analyzed using a LC-MS/MS method.
WinNonlin (Phoenix™, version 6.1) or other similar software will be used for pharmacokinetic calculations. The following pharmacokinetic parameters will be calculated, whenever possible from the plasma concentration versus time data:
IV administration: T1/2, C0, AUClast, AUCinf, MRTinf, Cl, Vss, Number of Points for Regression.
PO administration: T1/2, Cmax, Tmax, MRTinf, AUCinf, AUClast, F %, Number of Points for Regression.
The pharmacokinetic data will be described using descriptive statistics such as mean, standard deviation.

[3] = PO 10 mg/kg (equal to freebase), plasma, individual rats, 10 mg/kg
[4] = PO 10 mg/kg (equal to freebase), plasma, mean n=3

solubility in water [1]: approximately 20 mg/mL
F ([2]; PO 10 mg/kg (equal to freebase) vs IV 3 mg/kg freebase, individual rats): 39.9% and 42.6% and 38.1%
F, Mean ([2]; PO 10 mg/kg (equal to freebase) vs IV 3 mg/kg freebase, mean n=3): 40.2%
concentration in plasma ([2]; PO 10 mg/kg (equal to freebase), 0.25 h, individual rats, 10 mg/kg): 227 ng/mL and 253 ng/mL and 256 ng/mL
concentration in plasma, Mean ([2]; PO 10 mg/kg (equal to freebase), 0.25 h, mean n=3): 245 ng/mL
concentration in plasma ([2]; PO 10 mg/kg (equal to freebase), 0.5 h, individual rats, 10 mg/kg): 192 ng/mL and 233 ng/mL and 338 ng/mL
concentration in plasma, Mean ([2]; PO 10 mg/kg (equal to freebase), 0.5 h, mean n=3): 254 ng/mL
concentration in plasma ([2]; PO 10 mg/kg (equal to freebase), 1 h, individual rats, 10 mg/kg): 162 ng/mL and 197 ng/mL and 208 ng/mL
concentration in plasma, Mean ([2]; PO 10 mg/kg (equal to freebase), 1 h, mean n=3): 189 ng/mL
concentration in plasma ([2]; PO 10 mg/kg (equal to freebase), 2 h, individual rats, 10 mg/kg): 211 ng/mL and 180 ng/mL and 271 ng/mL
concentration in plasma, Mean ([2]; PO 10 mg/kg (equal to freebase), 2 h, mean n=3): 221 ng/mL
concentration in plasma ([2]; PO 10 mg/kg (equal to freebase), 4 h, individual rats, 10 mg/kg): 208 ng/mL and 155 ng/mL and 122 ng/mL
concentration in plasma, Mean ([2]; PO 10 mg/kg (equal to freebase), 4 h, mean n=3): 162 ng/mL
concentration in plasma ([2]; PO 10 mg/kg (equal to freebase), 8 h, individual rats, 10 mg/kg): 70.3 ng/mL and 40.7 ng/mL and 35.2 ng/mL
concentration in plasma, Mean ([2]; PO 10 mg/kg (equal to freebase), 8 h, mean n=3): 48.7 ng/mL
AUClast/D [2, 3]: 133 kg·ng·h/mL/mg and 144 kg·ng·h/mL/mg and 119 kg·ng·h/mL/mg
AUC—% Extrap_obs [2, 3]: 21.2% and 0.109% and 8.09%
Cmax [2, 3]: 227 ng/mL and 253 ng/mL and 338 ng/mL
MRTInf_obs [2, 3]: 5.40 h and 4.15 h and 3.26 h
T1/2 [2, 3]: 3.54 h and 2.40 h and 2.06 h
Tmax [2, 3]: 0.25 h (2×) and 0.5 h
AUCInf, Mean [2, 4]: 1477 ng·h/mL
AUClast, Mean [2, 4]: 1322 ng·h/mL
AUClast/D, Mean [2, 4]: 132 kg·ng·h/mL/mg
AUC—% Extrap_obs, Mean [2, 4]: 9.82%
Cmax, Mean [2, 4]: 273 ng/mL
MRTInf_obs, Mean [2, 4]: 4.27 h
T1/2, Mean [2, 4]: 2.67 h
Tmax, Mean [2, 4]: 20 min
SMILES: COc1cc2c(cc1OC)C1Cc3ccc(O)c(OC)c3CN1CC2.CS(=O)(=O)O (stereo not drawn) [TLZ-16 mesylate]
concentration in plasma ([2]; PO 10 mg/kg (equal to freebase), 0 h, individual rats): BLOQ (BLOQ = below limit of quantitation (0.2 ng/mL))
concentration in plasma ([2]; PO 10 mg/kg (equal to freebase), 24 h, individual rats, 10 mg/kg): BLOQ (BLOQ = below limit of quantitation (0.2 ng/mL)) (2×) and 0.454 ng/mL
AUCInf [2, 3]: 1690 ng·h/mL and 1446 ng·h/mL and 1294 ng·h/mL
AUClast [2, 3]: 1331 ng·h/mL and 1444 ng·h/mL and 1190 ng·h/mL
